Each structure is given as a SMILES string.

The text below walks through data of patent US7482375B2, “Compounds useful in therapy” (Pfizer Inc., priority 2005, dated 2009).

System in the first data set: not given
Experiment: not given
Settings: not given
As usually defined, the melting point is the temperature of the solid-liquid transition. Take `CCc1nn(CCO)c(CC)c1Oc1ccc(C#N)cc1` [Example 21, 4-[3,5-Diethyl-1-(2-hydroxy-ethyl)-1H-pyrazol-4-yloxy]-benzonitrile]: the melting point was 82 °C.

With `CCOC(=O)Cn1nc(C2CC2)c(Oc2cc(C)c(C#N)c(C)c2)c1C1CC1` (hydrate or solvate) [Example 38, Ethyl[4-(4-cyano-3,5-dimethylphenoxy)-3,5-dicyclopropyl-1H-pyrazol-1-yl]acetate], the melting point is 156 to 157 °C.

`CCc1nn(CCO)c(CC)c1Oc1cc(C)c(C#N)c(C)c1` [Example 27, 4-[3,5-Diethyl-1-(2-hydroxy-ethyl)-1H-pyrazol-4-yloxy]-2,6-dimethyl-benzonitrile] had a melting point of 97 °C.

`CCc1nn(CCO)c(CC)c1Oc1ccc(C#N)c(Cl)c1` gave a melting point of 85 °C.

Consider `CCOC(=O)Cn1nc(CC)c(Oc2ccc(C#N)cc2)c1CC` [Example 35, Ethyl[4-(4-cyanophenoxy)-3,5-diethyl-1H-pyrazol-1-yl]acetate], for which the melting point fell in the range of 147 to 149 °C.

In turn, `CNC(=O)Cn1nc(C2CC2)c(Oc2ccc(C#N)cc2)c1C1CC1` [Example 52, 2-[4-(4-Cyanophenoxy)-3,5-dicyclopropyl-1H-pyrazol-1-yl]-N-methylacetamide] had a melting point of 163 °C.

A further data set addresses T1, Progesterone Receptor (PR) (Homo sapiens, UniProt P06401).
T1 construct: endogenous in cells; host or cells: T47D human breast mammary carcinoma cells
T1 sequence (P06401 1-933): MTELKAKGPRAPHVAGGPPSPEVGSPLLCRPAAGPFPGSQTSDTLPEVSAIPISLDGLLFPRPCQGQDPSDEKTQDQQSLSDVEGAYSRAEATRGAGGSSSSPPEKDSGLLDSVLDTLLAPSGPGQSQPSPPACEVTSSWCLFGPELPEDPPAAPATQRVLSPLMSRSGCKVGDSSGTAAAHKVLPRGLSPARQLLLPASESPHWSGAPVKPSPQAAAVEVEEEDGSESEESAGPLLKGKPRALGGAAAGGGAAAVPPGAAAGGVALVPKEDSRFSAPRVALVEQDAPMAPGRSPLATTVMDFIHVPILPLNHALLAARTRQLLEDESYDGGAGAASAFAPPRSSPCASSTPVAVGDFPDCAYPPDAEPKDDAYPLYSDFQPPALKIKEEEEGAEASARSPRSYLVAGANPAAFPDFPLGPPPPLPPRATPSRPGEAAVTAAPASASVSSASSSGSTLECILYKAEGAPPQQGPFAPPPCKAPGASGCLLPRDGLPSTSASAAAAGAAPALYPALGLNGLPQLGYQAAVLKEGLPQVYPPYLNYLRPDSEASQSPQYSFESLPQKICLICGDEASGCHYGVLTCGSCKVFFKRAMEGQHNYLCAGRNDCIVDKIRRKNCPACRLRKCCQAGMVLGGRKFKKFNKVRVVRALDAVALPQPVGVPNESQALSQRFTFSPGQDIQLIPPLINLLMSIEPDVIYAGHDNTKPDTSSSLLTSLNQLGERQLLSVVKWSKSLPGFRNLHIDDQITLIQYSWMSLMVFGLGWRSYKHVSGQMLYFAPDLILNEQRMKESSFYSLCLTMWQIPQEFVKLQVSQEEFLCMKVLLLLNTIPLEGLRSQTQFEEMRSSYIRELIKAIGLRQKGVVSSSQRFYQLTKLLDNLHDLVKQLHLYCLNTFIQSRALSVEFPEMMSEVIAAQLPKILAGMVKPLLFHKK
The data set can be described thus: In vitro functional assay for progesterone receptor (PR) antagonism: inhibition of progesterone-induced alkaline phosphatase expression in T47D cells. The conditions noted are these: Screen 1.0, functional progesterone antagonism; antagonist format (5 nM P4), alkaline phosphatase inhibition in T47D human mammary carcinoma cells. It is filed as cell-based. An excerpt:
1.0 In vitro Functional Assay for Progesterone Receptor (PR) Antagonism
The assay for PR antagonism takes advantage of the extensively reported modulation of alkaline phosphatase (AP) expression in human breast T47D mammary carcinoma cells {Beck et al., D. P. (1993). The progesterone antagonist RU486 acquires agonist activity upon stimulation of cAMP signalling pathways. Proc Natl Acad Sci USA 90, 4441-4445; Fensome et al. (2002). New progesterone receptor antagonists: 3,3-disubstituted-5-aryloxindoles. Bioorg Med Chem Left 12, 3487-3490; Zhang et al., (2002a). 6-Aryl-1,4-dihydro-benzo d 1,3 oxazin-2-ones: a novel class of potent, selective, and orally active nonsteroidal progesterone receptor antagonists. Journal of Medicinal Chemistry 45, 4379-4382; Zhang et al., (2003). Novel 6-aryl-1,4-dihydrobenzo d oxazine-2-thiones as potent, selective, and orally active nonsteroidal progesterone receptor agonists. Bioorganic & Medicinal Chemistry Letters 13, 1313-1316; Zhang et al., (2002b). Potent nonsteroidal progesterone receptor agonists: synthesis and SAR study of 6-aryl benzoxazines. Bioorganic & Medicinal Chemistry Letters 12, 787-790; Zhang, Z. et al., (2000). In vitro characterization of trimegestone: a new potent and selective progestin. Steroids 65, 637-643.}. […] In the absence of progesterone any agonist activity is also observed as an induction of AP activity. By running the assay in two formats (+/−progesterone (P4)), compounds behaving as PR antagonists, agonists or partials can be identified.
The materials required to grow T47D cells and perform the progesterone-induced AP assay are outlined in Table 1.
Briefly, T47D cells are grown by propagating in DMEM+10% FBS+2 mM Glutamax at 37° C./5% CO2. At 80-90% confluence, the media is exchanged for phenol red free DMEM+5% CS-FCS (Assay media) and cultured for a further 24 hrs at 37° C./5% CO2. T47D cells are then plated at 2.5×10^4 cells/well in 100 μL assay media in sufficient 96 well plates for the assay, in triplicates of each condition. For example, for a 5 point IC50 curve on one compound, this is equivalent to 36 wells (2×18 wells, ±P4). These plates are then cultured for 24 hrs at 37° C./5% CO2, leaving the outside wells blank by the addition of 200 μL PBS.
A 10 mM stock solution of compounds is prepared in DMSO (stored −20° C. in 10 µL aliquots). A 10 mM DMSO stock of RU486 is used as a standard pure PR antagonist. The compounds under investigation are added to assay medium, or a mixture of 0.05% pluronic acid in PBS, ±10 nM P4 to give a final concentration of 20 µM (i.e. 10 µL of the 10 mM stock to […] assay medium ±10 nM P4). The samples are mixed thoroughly and serial dilutions of compounds from 10 µM to 0.1 nM in a 96 well plate, are prepared as follows:
The outside wells are left blank. Assay medium (225 μL) is added to one half of the plate (−P4), rows 3-8, and to the other half of the plate, assay medium +10 nM P4. To row 2, 250 μL of the top concentration of compound (20 μM±10 nM P4) is added. 25 μL of the […] stock from row 2 is removed and added to the 225 μL of assay medium ±10 nM P4 in row 3 and thoroughly mixed. This process is repeated down the plate to row 7 to achieve serial dilutions. The vehicle control is adjusted to contain 0.1% DMSO (i.e. 20 μL to 10 mL assay medium ±10 nM P4 to give a concentration of 0.2% DMSO, add 250 μL to row 8).
100 μL of reagent from the dilution plates are transferred into the corresponding wells containing T47D cells in 100 μL assay medium, to give a final concentration of 10 μM to 0.1 nM compound (5 nM P4 antagonist format). The cells for 20 hrs at 37° C./5% CO2., then media is removed, cells washed with PBS (200 μL) and lysed by placing the cells at −80° C. for 15 min and thawing at room temp. The Freeze-thaw lysis is repeated, then PBS (50 μL) is added to each well. […]
By IC50 is commonly meant the concentration that gives 50% inhibition. Low values mean higher potency, high ones lower potency. For the compound `Cc1cc(Oc2c(C3CC3)n[nH]c2C2CC2)cc(C)c1C#N` [Example 4, 4-[(3,5-Dicyclopropyl-1H-pyrazol-4-yl)oxy]-2,6-dimethylbenzonitrile], the half-inhibitory concentration (IC50) was determined as 9 nM.

In the case of `CCc1nn(CC#N)c(CC)c1Oc1cc(C)c(C#N)c(C)c1` [Example 87, 4-{[1-(Cyanomethyl)-3,5-diethyl-1H-pyrazol-4-yl]oxy}-2,6-dimethylbenzonitrile], inhibition was half-maximal at 5 nM (IC50).

Regarding `Cc1cc(Oc2c(C3CC3)nn(Cc3cncnc3)c2C2CC2)cc(C)c1C#N` [Example 126, 4-({3,5-Dicyclopropyl-1-[(pyrimidin-5-yl)methyl]-1H-pyrazol-4-yl}oxy)-2,6-dimethylbenzonitrile], the IC50 amounted to 3 nM.

Compound `CNC(=O)Cn1nc(C2CC2)c(Oc2cc(C)c(C#N)c(C)c2)c1C1CC1` [Example 65, 2-[4-(4-Cyano-3,5-dimethylphenoxy)-3,5-dicyclopropyl-1H-pyrazol-1-yl]-N-methyl-acetamide] came in with a concentration for half-maximal inhibition (IC50) of 3 nM. That is a single-digit nanomolar value.

As for `CNC(=O)Cn1nc(C2CC2)c(Oc2cc(C)c(C#N)c(C)c2)c1C` [Example 71, 2-[4-(4-Cyano-3,5-dimethyl-phenoxy)-3-cyclopropyl-5-methyl-1H-pyrazol-1-yl]-N-methyl-acetamide], half-maximal inhibition (IC50) required 4 nM.

In turn, `CCCn1nc(CC)c(Oc2ccc(C#N)cc2)c1CC` [Example 146, 4-[(3,5-Diethyl-1-propyl-1H-pyrazol-4-yl)oxy]benzonitrile] showed an IC50 of 6 nM.
